Results taken from US11078198B2 (BRISTOL-MYERS SQUIBB COMPANY, priority 2017, dated 2021).
pEC50: −log10 of the molar value.

Target: T1, human FXR (Homo sapiens, UniProt Q96RI1)
T1 construct: expressed in transfected cells; host or cells: HEK293 cells stably carrying a 5xGal4-response-element firefly luciferase reporter, transiently transfected with pcDNA3.1-Gal4-FXR
T1 sequence (Q96RI1 262-486 limits assumed): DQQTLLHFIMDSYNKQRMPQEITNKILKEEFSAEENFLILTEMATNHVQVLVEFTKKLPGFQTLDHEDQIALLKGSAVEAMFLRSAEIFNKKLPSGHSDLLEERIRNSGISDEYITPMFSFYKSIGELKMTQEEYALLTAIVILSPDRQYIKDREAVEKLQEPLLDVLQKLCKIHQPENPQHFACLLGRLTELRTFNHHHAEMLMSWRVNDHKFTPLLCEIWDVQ
Assay: transient human FXR/Gal4-luciferase reporter assay
Type: cell-based
Settings: Gal4-hFXR transfected HEK293 reporter cells; relative to 8 μM GW-4064
How it was run: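 HEK293 cells stably carrying a 5×Gal4-response-element firefly luciferase reporter, transiently transfected overnight with a CMV-driven Gal4 DNA-binding domain/human FXR ligand-binding domain fusion.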

Row | pEC50 | Structure (SMILES)
1 | 6.60 | O=C(O)c1cc(C(F)(F)F)c2cc(N3CCC4(C=C(c5c(-c6cccnc6C(F)(F)F)noc5C5CC5)C4)CC3)ccc2n1 [Example 92, 6-(2-(5-Cyclopropyl-3-(2-(trifluoromethyl)pyridin-3-yl)isoxazol-4-yl)-7-azaspiro[3.5]non-1-en-7-yl)-4-(trifluoromethyl)quinoline-2-carboxylic acid]
2 | 5.89 | O=C(O)c1ccc2cc(N3CCC4(C=C(c5c(-c6cccnc6C(F)(F)F)noc5C5CC5)C4)CC3)ccc2n1 [Example 153, 6-(2-(5-Cyclopropyl-3-(2-(trifluoromethyl)pyridin-3-yl)isoxazol-4-yl)-7-azaspiro[3.5]non-1-en-7-yl)quinoline-2-carboxylic acid]
3 | 5.71 | COc1cncc(F)c1-c1noc(C2CC2)c1C1=CC2(CCN(c3ccc4nc(C(=O)O)cc(C(F)(F)F)c4c3)CC2)C1 [Example 97, 6-(2-(5-Cyclopropyl-3-(3-fluoro-5-methoxypyridin-4-yl)isoxazol-4-yl)-7-azaspiro[3.5]non-1-en-7-yl)-4-(trifluoromethyl)quinoline-2-carboxylic acid]
4 | 6.88 | O=C(O)c1ccc2nc(N3CCC4(C=C(c5c(-c6ccccc6OC(F)(F)F)noc5C5CC5)C4)CC3)ccc2c1 [Example 140, 2-(2-(5-Cyclopropyl-3-(2-(trifluoromethoxy)phenyl)isoxazol-4-yl)-7-azaspiro[3.5]non-1-en-7-yl)quinoline-6-carboxylic acid]
5 | 6.02 | CCOC(=O)c1cc(C(F)(F)F)c2cc(N3CCC4(C=C(c5c(-c6c(Cl)cncc6Cl)noc5C5CC5)C4)CC3)ccc2n1 [Example 203, Ethyl 6-(2-(5-cyclopropyl-3-(3,5-dichloropyridin-4-yl)isoxazol-4-yl)-7-azaspiro[3.5]non-1-en-7-yl)-4-(trifluoromethyl)quinoline-2-carboxylate]
6 | 7.21 | COc1cc(C(=O)O)nc2ccc(N3CCC4(C=C(c5c(-c6ccccc6C(F)(F)F)noc5C5CC5)C4)CC3)cc12 [Example 105, 6-(2-(5-Cyclopropyl-3-(2-(trifluoromethyl)phenyl)isoxazol-4-yl)-7-azaspiro[3.5]non-1-en-7-yl)-4-methoxyquinoline-2-carboxylic acid]
7 | 6.64 | Cc1cccc(Cl)c1-c1noc(C2CC2)c1C1=CC2(CCN(c3ccc4cc(C(=O)O)nnc4c3)CC2)C1 [Example 57, 7-(2-(3-(2-Chloro-6-methylphenyl)-5-cyclopropylisoxazol-4-yl)-7-azaspiro[3.5]non-1-en-7-yl)cinnoline-3-carboxylic acid]
8 | 5.55 | O=C(O)c1cc2ccc(N3CCC4(C=C(c5c(-c6c(F)cccc6F)noc5C5CC5)C4)CC3)cc2cn1 [Example 162, 7-(2-(5-Cyclopropyl-3-(2,6-difluorophenyl)isoxazol-4-yl)-7-azaspiro[3.5]non-1-en-7-yl)isoquinoline-3-carboxylic acid]
9 | 7.34 | O=C(O)c1cc2ccc(N3CCC4(C=C(c5c(-c6c(Cl)cccc6Cl)noc5C5CC5)C4)CC3)cc2nn1 [Example 53, 7-(2-(5-Cyclopropyl-3-(2,6-dichlorophenyl)isoxazol-4-yl)-7-azaspiro[3.5]non-1-en-7-yl)cinnoline-3-carboxylic acid]

Second part, the molecule before the results:

Row | Structure (SMILES) | pEC50
10 | O=C(O)c1cc(F)c2nc(N3[C@@H]4CC[C@H]3CC3(C=C(c5c(-c6c(Cl)cccc6Cl)noc5C5CC5)C3)C4)sc2c1 (mixture of isomers) [Example 11, 2-(3′-(5-Cyclopropyl-3-(2,6-dichlorophenyl)isoxazol-4-yl)-8-azaspiro[bicyclo[3.2.1]octane-3,1′-cyclobutan]-2′-en-8-yl)-4-fluorobenzo[d]thiazole-6-carboxylic acid] | 6.72
11 | O=C(O)c1cnc(N2CCC3(C=C(c4c(-c5c(Cl)cccc5Cl)noc4C4CC4)C3)CC2)nc1 [Example 118, 2-(2-(5-Cyclopropyl-3-(2,6-dichlorophenyl)isoxazol-4-yl)-7-azaspiro[3.5]non-1-en-7-yl)pyrimidine-5-carboxylic acid] | 6.77
12 | O=C(O)c1ccc2nc(N3CCC4(C=C(c5c(-c6c(Cl)cccc6Cl)noc5C5CC5)C4)CC3)oc2c1 [Example 114, 2-(2-(5-Cyclopropyl-3-(2,6-dichlorophenyl)isoxazol-4-yl)-7-azaspiro[3.5]non-1-en-7-yl)benzo[d]oxazole-6-carboxylic acid] | 6.90
13 | COc1ccc(C(=O)O)c2ccc(N3CCC4(C=C(c5c(-c6c(Cl)cncc6Cl)noc5C5CC5)C4)CC3)nc12 [Example 64, 2-(2-(5-Cyclopropyl-3-(3,5-dichloropyridin-4-yl)isoxazol-4-yl)-7-azaspiro[3.5]non-1-en-7-yl)-8-methoxyquinoline-5-carboxylic acid] | 7.31
14 | O=C(O)c1ncc(N2CCC3(C=C(c4c(-c5c(Cl)cccc5Cl)noc4C4CC4)C3)CC2)cn1 [Example 22, 5-(2-(5-Cyclopropyl-3-(2,6-dichlorophenyl)isoxazol-4-yl)-7-azaspiro[3.5]non-1-en-7-yl) pyrimidine-2-carboxylic acid] | 5.82
15 | CCOc1cc(C(=O)O)nc2ccc(N3CCC4(C=C(c5c(C6CCCCC6)noc5C5CC5)C4)CC3)cc12 [Example 167, 6-(2-(3-Cyclohexyl-5-cyclopropylisoxazol-4-yl)-7-azaspiro[3.5]non-1-en-7-yl)-4-ethoxyquinoline-2-carboxylic acid] | 5.51
16 | O=C(O)c1ccc2nc(N3CCC4(C=C(c5c(-c6c(Cl)cncc6Cl)noc5C5CC5)C4)CC3)sc2c1 [Example 63, 2-(2-(5-Cyclopropyl-3-(3,5-dichloropyridin-4-yl)isoxazol-4-yl)-7-azaspiro[3.5]non-1-en-7-yl)benzo[d]thiazole-6-carboxylic acid] | 7.21
17 | O=C(O)c1ccc(N2[C@@H]3CC[C@H]2CC2(C=C(c4c(-c5c(Cl)cccc5Cl)noc4C4CC4)C2)C3)nc1 (mixture of isomers) [Example 12, 6-(3′-(5-Cyclopropyl-3-(2,6-dichlorophenyl)isoxazol-4-yl)-8-azaspiro[bicyclo[3.2.1]octane-3,1′-cyclobutan]-2′-en-8-yl)nicotinic acid] | 6.74
18 | Cc1cc(C(=O)O)nc(N2CCC3(C=C(c4c(-c5c(Cl)cccc5Cl)noc4C4CC4)C3)CC2)n1 [Example 120, 2-(2-(5-Cyclopropyl-3-(2,6-dichlorophenyl)isoxazol-4-yl)-7-azaspiro[3.5]non-1-en-7-yl)-6-methylpyrimidine-4-carboxylic acid] | 5.86
19 | O=C(O)c1cc(F)c2nc(N3CCC4(C=C(c5c(C6CC6)nnn5-c5c(Cl)cccc5Cl)C4)CC3)sc2c1 [Example 204, 2-(2-(4-Cyclopropyl-1-(2,6-dichlorophenyl)-1H-1,2,3-triazol-5-yl)-7-azaspiro[3.5]non-1-en-7-yl)-4-fluorobenzo[d]thiazole-6-carboxylic acid] | 7.59
20 | CC(C)c1onc(-c2c(Cl)cccc2Cl)c1C1=CC2(CCN(c3nc4c(F)cc(C(=O)O)cc4s3)CC2)C1 [Example 49, 2-(2-(3-(2,6-Dichlorophenyl)-5-isopropylisoxazol-4-yl)-7-azaspiro[3.5]non-1-en-7-yl)-4-fluorobenzo[d]thiazole-6-carboxylic acid] | 7.24
21 | Cn1nc(C(=O)O)c2ccc(N3CCC4(C=C(c5c(-c6c(Cl)cccc6Cl)noc5C5CC5)C4)CC3)cc21 [Example 125, 6-(2-(5-Cyclopropyl-3-(2,6-dichlorophenyl)isoxazol-4-yl)-7-azaspiro[3.5]non-1-en-7-yl)-1-methyl-1H-indazole-3-carboxylic acid] | 7.02
22 | O=C(O)c1cc(F)c2nc(N3CCC4(CC3)CC(c3c(C(F)F)cnn3-c3ccccc3C(F)(F)F)C4)sc2c1 [Example 215, 2-(2-(4-(Difluoromethyl)-1-(2-(trifluoromethyl)phenyl)-1H-pyrazol-5-yl)-7-azaspiro[3.5]nonan-7-yl)-4-fluorobenzo[d]thiazole-6-carboxylic acid] | 6.00
23 | O=C(O)c1ccc2nc(N3CCC4(C=C(c5c(-c6c(Cl)cccc6Cl)noc5C5CC5)C4)CC3)ccc2c1 [Example 122, 2-(2-(5-Cyclopropyl-3-(2,6-dichlorophenyl)isoxazol-4-yl)-7-azaspiro[3.5]non-1-en-7-yl)quinoline-6-carboxylic acid] | 7.40
24 | CS(=O)(=O)NC(=O)c1cc(F)c2nc(N3CCC4(C=C(c5c(-c6c(Cl)cncc6Cl)noc5C5CC5)C4)CC3)sc2c1 [Example 182, 2-(2-(5-Cyclopropyl-3-(3,5-dichloropyridin-4-yl)isoxazol-4-yl)-7-azaspiro[3.5]non-1-en-7-yl)-4-fluoro-N-(methylsulfonyl)benzo[d]thiazole-6-carboxamide] | 6.16
25 | Cc1nc(C(=O)O)c2ccc(N3CCC4(C=C(c5c(-c6c(Cl)cccc6Cl)noc5C5CC5)C4)CC3)cn12 [Example 127, 6-(2-(5-Cyclopropyl-3-(2,6-dichlorophenyl)isoxazol-4-yl)-7-azaspiro[3.5]non-1-en-7-yl)-3-methylimidazo[1,5-a]pyridine-1-carboxylic acid] | 6.57
26 | Cn1c(N2CCC3(C=C(c4c(-c5c(Cl)cccc5Cl)noc4C4CC4)C3)CC2)nc2cc(C(=O)O)ccc21 [Example 25, 2-(2-(5-Cyclopropyl-3-(2,6-dichlorophenyl)isoxazol-4-yl)-7-azaspiro[3.5]non-1-en-7-yl)-1-methyl-1H-benzo[d]imidazole-5-carboxylic acid] | 5.99
27 | O=C(O)c1cc2ccc(N3CCC4(C=C(c5c(-c6c(Cl)cccc6Cl)noc5C5CC5)C4)CC3)cc2cn1 [Example 129, 7-(2-(5-Cyclopropyl-3-(2,6-dichlorophenyl)isoxazol-4-yl)-7-azaspiro[3.5]non-1-en-7-yl)isoquinoline-3-carboxylic acid] | 6.47
